Assay [1] has as its target SARS-CoV-2 3CL protease (Severe acute respiratory syndrome coronavirus 2, UniProt P0DTD1). Briefly: biochemical. Conditions: 50% SARS-CoV-2 3CL protease inhibitory concentration, read-out: IC50.
Assay [2] deals with SARS-CoV-2. The assay can be described thus: microbe, parasite or virus in culture. Conditions: Severe acute respiratory syndrome coronavirus 2, VeroE6/TMPRSS2, 72 h, 50% SARS-CoV-2 infected cell death inhibitory concentration, VeroE6/TMPRSS2 cells, 3 days culture. In kind it is cell-based.

Like-named read-outs stand apart in the source and are kept apart here. Some results are limits rather than exact numbers.

Turning to `CC[C@@H](Nc1nc(=O)n(Cc2ccc[nH]c2=O)c(=O)n1Cc1cc(F)c(F)c(F)c1)C(F)(F)F` [II-0370], the half-inhibitory concentration (IC50) (as a rule, the midpoint of a concentration-inhibition curve) in assay [1] (RapidFire MS) is 520 nM. Also, in assay [2] (CellTiter-Glo 2.0), the midpoint of the response, the EC50, lay at 28900 nM.
The matching figures for `O=c1[nH]cccc1Cn1c(=O)nc(NCC2CCCC2)n(Cc2cc(F)c(F)c(F)c2)c1=O` [II-0371]: 540 nM and 13300 nM.
With `Cc1cncc(-n2c(=O)nc(N(C)C3CCCCC3)n(Cc3cc(F)c(F)c(F)c3)c2=O)c1` [II-0372], the IC50 in assay [1] (RapidFire MS) turned out to be 3400 nM. Also, the EC50 (as a rule, the concentration giving half of the maximal effect) in assay [2] (CellTiter-Glo 2.0) worked out at 6520 nM.
For `Cc1cncc(-n2c(=O)nc(N3CC4CCC3CO4)n(Cc3cc(F)c(F)c(F)c3)c2=O)c1` (centres unmarked) [II-0375] the same measures were 3800 nM and 21600 nM.
The matching figures for `Cc1cncc(-n2c(=O)nc(N3CC4(CCOC4)C3)n(Cc3cc(F)c(F)c(F)c3)c2=O)c1` [II-0376]: 1000 nM and 7130 nM.
For `Cc1cncc(-n2c(=O)nc(Nc3cc4cn(C)nc4cc3Cl)n(Cc3cc(Cl)c(F)cc3F)c2=O)c1` [II-0377] the same measures were 3 nM and 49 nM.
For the compound `Cc1cncc(-n2c(=O)nc(Nc3cc4cn(C)nc4cc3Cl)n(Cc3ccc(F)c(C#N)c3)c2=O)c1` [II-0378], the IC50 in assay [1] (given as class symbols) was under 100 nM. Moreover, in assay [2] (class symbols), the EC50 was 1000 to 10000 nM.
The matching figures for `Cc1cc(F)c(C#N)cc1Cn1c(Nc2cc3cn(C)nc3cc2Cl)nc(=O)n(-c2cncc(N)c2)c1=O` [II-0380]: under 100 nM and 1000 to 10000 nM.
For the compound `Cn1cc2cc(Nc3nc(=O)n(-c4cncc(N)c4)c(=O)n3Cc3cc(Cl)c(F)cc3F)c(Cl)cc2n1` [II-0381], in assay [1] (given as class symbols), the 50% inhibitory concentration (IC50) is under 100 nM. This compound registered a concentration for a half-maximal effect (EC50) in assay [2] (class symbols) of under 1000 nM.
With `CNc1nc2cc(Cl)c(Nc3nc(=O)n(-c4cncc(C)c4)c(=O)n3Cc3ccc(F)c(C#N)c3)cc2s1` [II-0382], the IC50 in assay [1] (given as class symbols) was under 100 nM. Besides, in assay [2] (class symbols), the concentration for a half-maximal effect (EC50) is under 1000 nM.
The matching figures for `CNc1nc2ccc(Nc3nc(=O)n(-c4cncc(Cl)c4)c(=O)n3Cc3cc(C#N)ccc3C)cc2s1` [II-0383]: under 100 nM and under 1000 nM.
For `Cn1cc2cc(Nc3nc(=O)n(-c4cncc(N)c4)c(=O)n3Cc3cc(F)c(F)c(Cl)c3)c(Cl)cc2n1` [II-0384] the same measures were under 100 nM and 1000 to 10000 nM.
For `CNc1nc2cc(F)c(Nc3nc(=O)n(-c4cncc(C)c4)c(=O)n3Cc3cc(Cl)c(F)cc3F)cc2s1` [II-0385] the same measures were under 100 nM and under 1000 nM.
`Cn1cc2cc(Nc3nc(=O)n(-c4cncc(N)c4)c(=O)n3Cc3cc(F)c(F)cc3F)c(Cl)cc2n1` [II-0386]: the IC50 in assay [1] (given as class symbols) was under 100 nM. This compound also gave an EC50 in assay [2] (class symbols) of 1000 to 10000 nM.
For `CNc1nc2ccc(Nc3nc(=O)n(-c4cncc(Cl)c4)c(=O)n3Cc3cc(F)c(F)c(C#N)c3)cc2s1` [II-0387] the same measures were under 100 nM and under 1000 nM.
The matching figures for `Cn1cc2cc(Nc3nc(=O)n(-c4cncc(C5CC5)c4)c(=O)n3Cc3ccc(F)c(C#N)c3)ccc2n1` [II-0388]: under 100 nM and under 1000 nM.
Take `Cn1cc2cc(Nc3nc(=O)n(-c4cncc(C#N)c4)c(=O)n3Cc3ccc(F)c(C#N)c3)ccc2n1` [II-0389]: the IC50 in assay [1] (RapidFire MS) came to 45 nM. Besides, in assay [2] (CellTiter-Glo 2.0), the EC50 is 4400 nM.
For the compound `CCc1cncc(-n2c(=O)nc(Nc3ccc4nn(C)cc4c3)n(Cc3ccc(F)c(C#N)c3)c2=O)c1` [II-0390], in assay [1] (given as class symbols), the IC50 is under 100 nM. In assay [2] (class symbols), this compound showed a concentration for a half-maximal effect (EC50) of 1000 to 10000 nM.
The matching figures for `Cn1cc2cc(Nc3nc(=O)n(-c4cnc5ccccn45)c(=O)n3Cc3cc(F)c(F)c(F)c3)c(Cl)cc2n1` [II-0391]: under 100 nM and 1000 to 10000 nM.
With `COc1ccc(Nc2nc(=O)n(-c3cc(C)cnn3)c(=O)n2Cc2cc(F)c(F)c(F)c2)cc1` [II-0392], the concentration for half-maximal inhibition (IC50) in assay [1] (RapidFire MS) was 1000 nM. Also, in assay [2] (CellTiter-Glo 2.0), a half-maximal effect (EC50) was put at 20800 nM.
The matching figures for `COc1ccc(Nc2nc(=O)n(-c3cnc4sccn34)c(=O)n2Cc2cc(F)c(F)c(F)c2)cc1` [II-0393]: 3100 nM and 6080 nM.
For `COc1ccc(Nc2nc(=O)n(-c3cnnc(C)c3)c(=O)n2Cc2cc(F)c(F)c(F)c2)cc1` [II-0394] the same measures were 3900 nM and 44900 nM.
Turning to `CNc1nc2cc(Cl)c(Nc3nc(=O)n(-c4cncc(C)c4)c(=O)n3Cc3cc(C#N)ccc3C)cc2s1` [II-0395], the IC50 in assay [1] (given as class symbols) was under 100 nM. Besides, the half-maximal effective concentration (EC50) in assay [2] (class symbols) was under 1000 nM.
As for `CNc1nc2ccc(Nc3nc(=O)n(-c4cncc(Cl)c4)c(=O)n3Cc3cc(C#N)c(F)cc3C)cc2s1` [II-0396], the IC50 in assay [1] (given as class symbols) is under 100 nM. Besides, in assay [2] (class symbols), the EC50 was under 1000 nM.
The matching figures for `CNc1nc2ccc(Nc3nc(=O)n(-c4cncc(C)c4)c(=O)n3Cc3cc(F)c(F)c(C#N)c3)cc2s1` [II-0397]: under 100 nM and under 1000 nM.

These data come from US12559474B2, “Triazine derivatives having virus replication inhibitory activity and pharmaceutical composition comprising the same” (priority 2021, dated 2026).
